Data: patent publication US7772241B2, “Variolin derivatives and their use as antitumor agents” (Pharma Mar S.A., priority 2001, dated 2010)

Key:
[1] = test system: IGROV-1; assay: Inhibition of cells growth by colorimetric (SRB) assay, IGROV-1; settings: for GI50 / CC50: Homo sapiens, IGROV-1, 48 h; for GI50: read-out: GI50 IGROV, SRB assay, 48 hours exposure; for CC50: read-out: LC50 IGROV, SRB assay, 48 hours exposure; for TGI IGROV: SRB assay, 48 hours exposure
Method in brief: (§1)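 Human tumour cells seeded at 5×10^3/well in RPMI 1640 10% FBS, attached 18 h, then exposed 48 h to samples at 10 to 10^−8 μg/ml in DMSO/EtOH/PBS (0.5:0.5:99). Growth read by SRB staining after TCA fixation, OD 490 nm, triplicate wells; GI, TGI and LC derived.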

[2] = test system: SK-OV-3; assay: Inhibition of cells growth by colorimetric (SRB) assay, SK-OV-3; settings: for GI50 / CC50: Homo sapiens, SK-OV-3, 48 h; for GI50: read-out: GI50 SKOV-3, SRB assay, 48 hours exposure; for CC50: read-out: LC50 SKOV-3, SRB assay, 48 hours exposure; for TGI SKOV-3: SRB assay, 48 hours exposure
Method in brief: as §1

[3] = test system: PANC-1; assay: Inhibition of cells growth by colorimetric (SRB) assay, PANC-1; settings: for GI50 / CC50: Homo sapiens, PANC-1, 48 h; for GI50: read-out: GI50 PANC-1, SRB assay, 48 hours exposure; for CC50: read-out: LC50 PANC-1, SRB assay, 48 hours exposure; for TGI PANC-1: SRB assay, 48 hours exposure
Method in brief: as §1

[4] = test system: IGROV-ET; assay: Inhibition of cells growth by colorimetric (SRB) assay, IGROV-ET; settings: for GI50 / CC50: Homo sapiens, 48 h; for GI50: read-out: GI50 IGROV-ET, SRB assay, 48 hours exposure; for CC50: read-out: LC50 IGROV-ET, SRB assay, 48 hours exposure; for TGI IGROV-ET: SRB assay, 48 hours exposure
Method in brief: as §1

[5] = test system: HMEC1; assay: Inhibition of cells growth by colorimetric (SRB) assay, HMEC1; settings: for GI50: Homo sapiens, HMEC-1, 48 h, read-out: GI50 H-MEC-1, SRB assay, 48 hours exposure; for TGI H-MEC-1: SRB assay, 48 hours exposure, in M (unit assumed)
[6] = as above; settings: human, HMEC1 cells, LC50 H-MEC-1, SRB assay, 48 hours exposure
[7] = test system: HT-29; assay: Inhibition of cells growth by colorimetric (SRB) assay, HT-29; settings: for GI50 / CC50: Homo sapiens, HT-29, 48 h; for GI50: read-out: GI50 HT-29, SRB assay, 48 hours exposure; for CC50: read-out: LC50 HT-29, SRB assay, 48 hours exposure; for TGI HT-29: SRB assay, 48 hours exposure
Method in brief: as §1

[8] = test system: K-562; assay: Inhibition of cells growth by colorimetric (SRB) assay, K-562; settings: for GI50 / CC50: Homo sapiens, K562, 48 h; for GI50: read-out: GI50 K-562, SRB assay, 48 hours exposure; for CC50: read-out: LC50 K-562, SRB assay, 48 hours exposure; for TGI K-562: SRB assay, 48 hours exposure
Method in brief: as §1

[9] = test system: LoVo; assay: Inhibition of cells growth by colorimetric (SRB) assay, LoVo; settings: for GI50 / CC50: Homo sapiens, LoVo, 48 h; for GI50: read-out: GI50 LOVO, SRB assay, 48 hours exposure; for CC50: read-out: LC50 LOVO, SRB assay, 48 hours exposure; for TGI LOVO: SRB assay, 48 hours exposure
Method in brief: as §1

[10] = test system: LNCaP; assay: Inhibition of cells growth by colorimetric (SRB) assay, LNCaP; settings: for GI50 / CC50: Homo sapiens, LNCaP, 48 h; for GI50: read-out: GI50 LN-caP, SRB assay, 48 hours exposure; for CC50: read-out: LC50 LN-caP, SRB assay, 48 hours exposure; for TGI LN-caP: SRB assay, 48 hours exposure
Method in brief: as §1

[11] = test system: A-549; assay: Inhibition of cells growth by colorimetric (SRB) assay, A-549; settings: for GI50 / CC50: Homo sapiens, A549, 48 h; for GI50: read-out: GI50 A-549, SRB assay, 48 hours exposure; for CC50: read-out: LC50 A-549, SRB assay, 48 hours exposure; for TGI A-549: SRB assay, 48 hours exposure
Method in brief: as §1

[12] = test system: DU-145; assay: Inhibition of cells growth by colorimetric (SRB) assay, DU-145; settings: for GI50 / CC50: Homo sapiens, DU-145, 48 h; for GI50: read-out: GI50 DU-145, SRB assay, 48 hours exposure; for CC50: read-out: LC50 DU-145, SRB assay, 48 hours exposure; for TGI DU-145: SRB assay, 48 hours exposure
Method in brief: as §1

[13] = test system: SK-MEL-28; assay: Inhibition of cells growth by colorimetric (SRB) assay, SK-MEL-28; settings: for GI50 / CC50: Homo sapiens, SK-MEL-28, 48 h; for GI50: read-out: GI50 MEL-28, SRB assay, 48 hours exposure; for CC50: read-out: LC50 MEL-28, SRB assay, 48 hours exposure; for TGI MEL-28: SRB assay, 48 hours exposure
Method in brief: as §1

[14] = test system: LoVo-Dox; assay: Inhibition of cells growth by colorimetric (SRB) assay, LoVo-Dox; settings: for GI50 / CC50: Homo sapiens, 48 h; for GI50: read-out: GI50 LOVO-DOX, SRB assay, 48 hours exposure; for CC50: read-out: LC50 LOVO-DOX, SRB assay, 48 hours exposure; for TGI LOVO-DOX: SRB assay, 48 hours exposure
Method in brief: as §1

[15] = test system: SK-BR-3; assay: Inhibition of cells growth by colorimetric (SRB) assay, SK-BR-3; settings: for GI50 / CC50: Homo sapiens, SK-BR-3, 48 h; for GI50: read-out: GI50 SK-BR-3, SRB assay, 48 hours exposure; for CC50: read-out: LC50 SK-BR-3, SRB assay, 48 hours exposure; for TGI SK-BR-3: SRB assay, 48 hours exposure
Method in brief: as §1

SMILES: Cl.Nc1nccc(-c2c3cccnc3n3c(N)nccc23)n1 [Compound 51]
- GI50 [1]: 0.0851 µM
- CC50 [1]: 2.12 µM
- TGI IGROV [1]: 3.28E−07
- GI50 [2]: 0.146 µM
- CC50 [2]: 28.6 µM
- TGI SKOV-3 [2]: 2.15E−06
- GI50 [3]: 0.161 µM
- CC50 [3]: 28.6 µM
- TGI PANC-1 [3]: 2.73E−06
- GI50 [4]: 0.0748 µM
- CC50 [4]: 18.6 µM
- TGI IGROV-ET [4]: 2.25E−07
- GI50 [5]: 0.0164 µM
- TGI H-MEC-1 [5]: 1.54E−08
- CC50 at 48 h [6]: 0.143 µM
- GI50 [7]: 0.101 µM
- CC50 [7]: 28.6 µM
- TGI HT-29 [7]: 2.86E−07
- GI50 [8]: 0.311 µM
- CC50 [8]: 5.17 µM
- TGI K-562 [8]: 4.03E−07
- GI50 [9]: 0.0774 µM
- CC50 [9]: 16 µM
- TGI LOVO [9]: 1.84E−07
- GI50 [10]: 0.0737 µM
- CC50 [10]: 0.286 µM
- TGI LN-caP [10]: 1.27E−07
- GI50 [11]: 0.0999 µM
- CC50 [11]: 4.57 µM
- TGI A-549 [11]: 3.68E−07
- GI50 [12]: 0.0654 µM
- CC50 [12]: 2.7 µM
- TGI DU-145 [12]: 1.48E−07
- GI50 [13]: 0.0925 µM
- CC50 [13]: 1.37 µM
- TGI MEL-28 [13]: 2.69E−07
- GI50 [14]: 0.078 µM
- CC50 [14]: 17.9 µM
- TGI LOVO-DOX [14]: 2.86E−07
- GI50 [15]: 0.0591 µM
- CC50 [15]: 0.554 µM
- TGI SK-BR-3 [15]: 1.42E−07

SMILES: Nc1nccc(-c2c3cccnc3n3ccccc23)n1 [Compound 56]
- GI50 [1]: 8.69 µM
- CC50 [1]: 38.3 µM
- TGI IGROV [1]: 1.91E−05
- GI50 [2]: 7.12 µM
- CC50 [2]: 35.5 µM
- TGI SKOV-3 [2]: 1.59E−05
- GI50 [3]: 8.96 µM
- CC50 [3]: 38.3 µM
- TGI PANC-1 [3]: 1.94E−05
- GI50 [4]: 11.5 µM
- CC50 [4]: 38.3 µM
- TGI IGROV-ET [4]: 2.35E−05
- GI50 [5]: 3.9 µM
- TGI H-MEC-1 [5]: 9.34E−06
- CC50 at 48 h [6]: 22.3 µM
- GI50 [7]: 12.5 µM
- CC50 [7]: 38.3 µM
- TGI HT-29 [7]: 3.46E−05
- GI50 [8]: 8.23 µM
- CC50 [8]: 38.3 µM
- TGI K-562 [8]: 1.83E−05
- GI50 [9]: 6.74 µM
- CC50 [9]: 38.3 µM
- TGI LOVO [9]: 1.63E−05
- GI50 [10]: 5.93 µM
- CC50 [10]: 20.6 µM
- TGI LN-caP [10]: 1.11E−05
- GI50 [11]: 6.28 µM
- CC50 [11]: 34.9 µM
- TGI A-549 [11]: 1.48E−05
- GI50 [12]: 2.12 µM
- CC50 [12]: 25.6 µM
- TGI DU-145 [12]: 8.88E−06
- GI50 [13]: 7.73 µM
- CC50 [13]: 38.3 µM
- TGI MEL-28 [13]: 1.73E−05
- GI50 [14]: 5.93 µM
- CC50 [14]: 38.3 µM
- TGI LOVO-DOX [14]: 1.66E−05
- GI50 [15]: 5.32 µM
- CC50 [15]: 38.3 µM
- TGI SK-BR-3 [15]: 1.88E−05
